This note sets out measurements from patent US10485795B2, “FXR (NR1H4) binding and activity modulating compounds” (Gilead Sciences, Inc., priority 2011, dated 2019).

One data set in a line: Aqueous solubility assay. The class given is physicochemical. Conditions: PBS buffer, kinetic from dmso stock, pH 7.4, theoretical final concentration of 200 μM. On the procedure: The aq. solubility in PBS, pH 7.4 was determined as follows. A 10 mM compound stock solution in DMSO was added to PBS (pH 7.4) to reach a theoretical final concentration of 200 μM. The resulting solution/suspension was shaken at 1250 rpm for 1 h and then stored in the dark at rt for 23 h. At this time any precipitate is separated from the solution by centrifugation at 3900 rpm for 30 min. The aq. solubility was determined by comparing the peak area of the principle peak in a calibration standard (200 μM) in an organic solvent (methanol/water 60:40, v/v) with the peak area of the corresponding peak in the buffer sample. As detection method was used HPLC-UV/VIS at 230 nm.

Data set [1] in a line: Parallel Artificial Membrane Permeation Assay (PAMPA). It is filed as in vitro ADME. Conditions: Flux (%) = (c acceptor well) / sum (c donor well + c acceptor well) × 100 × 2; PBS pH 7.4, 15-16 h at rt. Here is the method: For the PAMPA, 5 mM stock solutions of test items were prepared in DMSO. 5 mM stock solutions of reference items were prepared in EtOH (carbamazepine, guanabenz) or in EtOH:H2O 1:1 (v/v) (ceftriaxone), respectively. Compounds were diluted in PBS (pH 7.4) to obtain the starting solutions containing 5% of the respective organic solvent and 250 μM reference compounds or 10 μM test items, respectively. For the assay, a modified procedure of the PAMPA as described by Kansy et al. Kansy et al. (J. Med. Chem. 1998, 41, 1007) was used. The reference compounds for low (ceftriaxone), medium (guanabenz) and high permeation (carbamazepine) were included as internal controls.
Permeation experiments were carried out in a Multiscreen 96 well tray (donor) covered by a 96-well Multiscreen Immobilon (acceptor). The hydrophobic filter material of the Immobilon plate was pre-wetted with 70% ethanol and treated with a solution of lipids (lecithin dissolved in dodecane). The donor plate was filled with test compounds and reference compounds and both plates were inserted into each other and placed onto an orbital shaker for 15 min at 100 rpm. The transport study was started by applying 150 μL PBS-buffer containing the test and reference compounds to the donor plate. After 15-16 h of diffusion at rt, the contents of the acceptor and donor plate were collected and quantified using LC/MS-detection (test items) or by UV spectroscopy using a Spectramax Plus^384 (Molecular Devices) (reference items). The absorption maxima for the reference items ceftriaxone, guanabenz and carbamazepine were 240 nm, 270 nm and 286 nm, respectively. Recovery samples were prepared as described for the permeation assay samples and were incubated in representative vials during the permeation period under the same conditions.
For LC/MS analysis of the test items, 100 μL incubate were removed from acceptor and donor compartment and processed for acetonitrile (ACN) precipitation as described below. Additionally, test item samples from the lipid layer were extracted by flushing each well two times with 150 μL EA. The solutions were collected in 1.5 mL reaction tubes and the solvent was evaporated. The dried residues were resuspended in a PBS/DMSO/ACN mixture reflecting the composition of the acceptor and donor samples (i.e. 100 μL buffer supplemented with 5% DMSO, 200 μL ACN+ISTD). The final solvent content of each sample was 66% ACN.
Samples from donor and acceptor compartments and calibration standards were precipitated by addition of 200 μL ACN/ISTD or 400 μL ACN/ISTD, respectively. After vigorous shaking (10 seconds) and centrifugation (5 min at 4800×g, rt), the particle free supernatants were subjected to LC-MS/MS. Membrane compartments were extracted as described above. […]
A general note: In PAMPA a lipid-coated filter parts donor from acceptor wells.

The target in data set [2] is T1, FXR ligand binding domain (Homo sapiens, UniProt Q96RI1).
T1 construct: expressed in transfected cells; host or cells: HEK293 (DSMZ), transient transfection with a pCMV-BD construct
T1 sequence (Q96RI1 187-472 isoform Q96RI1-2): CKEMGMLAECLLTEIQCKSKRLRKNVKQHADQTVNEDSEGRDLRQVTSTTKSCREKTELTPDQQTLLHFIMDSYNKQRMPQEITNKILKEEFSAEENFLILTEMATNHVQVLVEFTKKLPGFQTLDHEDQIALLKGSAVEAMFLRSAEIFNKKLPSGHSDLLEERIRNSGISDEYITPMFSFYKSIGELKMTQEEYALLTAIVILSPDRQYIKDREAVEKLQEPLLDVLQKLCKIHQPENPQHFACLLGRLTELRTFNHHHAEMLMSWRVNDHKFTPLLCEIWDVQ
Kind of data set: Mammalian One Hybrid (M1H) assay, Gal4 reporter in HEK293 cells. The class given is cell-based. Conditions: Gal4-FXR LBD transactivation, HEK293 cells; read-out: EC50 potency range (Group), M1H assay. On the procedure: Determination of a ligand mediated Gal4 promoter driven transactivation to quantify ligand binding mediated activation of FXR was performed as follows: The cDNA part encoding the FXR ligand binding domain was cloned into vector pCMV-BD (Stratagene) as a fusion to the yeast GAL4 DNA binding domain under the control of the CMV promoter. […] The plasmid pFR-Luc (Stratagene) was used as the reporter plasmid, containing a synthetic promoter with five tandem repeats of the yeast GAL4 binding sites, driving the expression of the Photinus pyralis (American firefly) luciferase gene as the reporter gene. In order to improve experimental accuracy the plasmid pRL-CMV (Promega) was cotransfected. pRL-CMV contains the constitutive CMV promoter, controlling the expression of the Renilla reniformis luciferase. All Gal4 reporter gene assays were done in HEK293 cells (obtained from DSMZ, Braunschweig, Germany) grown in MEM with L-Glutamine and Earle's BSS supplemented with 10% fetal bovine serum, 0.1 mM nonessential amino acids, 1 mM sodium pyruvate, and 100 units Penicillin/[…] per mL at 37° C. in 5% CO2. Medium and supplements were obtained from Invitrogen. For the assay, […] were plated per well in 96 well plates in 100 μL per well MEM without Phenol Red and L-Glutamine and with Earle's BSS supplemented with 10% charcoal/dextran treated FBS (HyClone, South Logan, Utah), 0.1 mM nonessential amino acids, 2 mM glutamine, 1 mM sodium pyruvate, and 100 units Penicillin/[…] per mL, incubated at 37° C. in 5% CO2. The following day the cells were >90% confluence. […] MEM with the same composition as used for plating cells was added 2-4 h after addition of transfection mixture. Then compound stocks, prediluted in MEM were added (final vehicle concentration not exceeding 0.1%). […] All experiments were done in triplicates.

Data set [3] deals with T2, human FXR alpha ligand binding domain (Homo sapiens, UniProt Q96RI1).
T2 construct: made in house; host or cells: E. coli BL21(DE3), vector pDEST15
T2 sequence (Q96RI1 187-472 isoform Q96RI1-2): T1 sequence (Q96RI1 187-472 isoform Q96RI1-2)
Nature of the data set: FRET activity assay (ligand mediated cofactor peptide interaction). The following applies: FXR-LBD/SRC-1 peptide interaction, LANCE; read-out: EC50 (Group), FRET activity assay. It is filed as biochemical. Here is the method:
Determination of a ligand mediated cofactor peptide interaction to quantify ligand binding to the nuclear receptor FXR was performed as follows: Preparation of human FXR alpha ligand binding domain: The human FXRalpha LBD was expressed in E. coli strain BL21(DE3) as an N-terminally GST tagged fusion protein. The DNA encoding the FXR ligand binding domain was cloned into vector pDEST15 (Invitrogen). Expression was under control of an IPTG inducible T7 promoter. The amino acid boundaries of the ligand binding domain were amino acids 187-472 of Database entry NM_005123 (RefSeq). Expression and purification of the FXR-LBD: An overnight preculture of a transformed E. coli strain was diluted 1:20 in LB-Ampicillin medium and grown at 30° C. to an optical density of OD600=0.4-0.6. Gene expression was then induced by addition of 0.5 mM IPTG. Cells were incubated an additional 6 h at 30° C., 180 rpm. Cells were collected by centrifugation (7000×g, 7 min, rt). Per liter of original cell culture, cells were resuspended in 10 mL lysis buffer (50 mM Glucose, 50 mM Tris pH 7.9, 1 mM EDTA and 4 mg/mL lysozyme) and left on ice for 30 min. Cells were then subjected to sonication and cell debris removed via centrifugation (22000×g, 30 min, 4° C.). Per 10 mL of supernatant 0.5 mL prewashed Glutathione 4B sepharose slurry (Qiagen) was added and the suspension kept slowly rotating for 1 h at 4° C. Glutathione 4B sepharose beads were pelleted by centrifugation (2000×g, 15 sec, 4° C.) and washed twice in wash buffer (25 mM Tris, 50 mM KCl, 4 mM MgCl2 and 1M NaCl). The pellet was resuspended in 3 mL elution buffer per liter of original culture (elution buffer: 20 mM Tris, 60 mM KCl, 5 mM MgCl2 and 80 mM glutathione added immediately prior to use as powder). The suspension was left rotating for 15 min at 4° C., the beads pelleted and eluted again with half the volume of elution buffer than the first time. The eluates were pooled and dialysed overnight in 20 mM Hepes buffer (pH 7.5) containing 60 mM KCl, 5 mM MgCl2 as well as 1 mM dithiothreitol and 10% (v/v) glycerol. The protein was analysed by SDS-Page.
The method measures the ability of putative ligands to modulate the interaction between the purified bacterial expressed FXR ligand binding domain (LBD) and a synthetic biotinylated peptide based on residues 676-700 of SRC-1 (LCD2, 676-700). The sequence of the peptide used was B-[…]-COOH where the N-terminus was biotinylated (B). The ligand binding domain (LBD) of FXR was expressed as fusion protein with GST in BL-21 cells using the vector pDEST15. Cells were lysed by sonication, and the fusion proteins purified over glutathione sepharose (Pharmacia) according to the manufacturers instructions. For screening of compounds for their influence on the FXR-peptide interaction, the Perkin Elmer LANCE technology was applied. This method relies on the binding dependent energy transfer from a donor to an acceptor fluorophor attached to the binding partner of interest. For ease of handling and reduction of background from compound fluorescence LANCE technology makes use of generic fluorophore labels and time resolved detection Assays were done in a final volume of 25 μL in a 384 well plate, in a Tris-based buffer (20 mM Tris-HCl pH 7.5; 60 mM KCl, 5 mM MgCl2; 35 ng/μL BSA), containing 20-60 ng/well recombinantly expressed FXR-LBD fused to GST, 200-600 nM N-terminally biotinylated peptide, representing SRC1 aminoacids 676-700, 200 ng/well Streptavidin-xIAPC conjugate (Prozyme) and 6-10 ng/well Eu W1024-antiGST (Perkin Elmer). DMSO content of the samples was kept at 1%. After generation of the assay mix and diluting the potentially FXR modulating ligands, the assay was equilibrated for 1 h in the dark at rt in FIA-plates black 384 well (Greiner). The LANCE signal was detected by a Perkin Elmer VICTOR2VTM Multilabel Counter. The results were visualized by plotting the ratio between the emitted light at 665 and 615 nm. […]
In general terms: In TR-FRET formats the signal depends on donor and acceptor labels being close together.

As usually defined, the solubility is how much of the substance goes into solution per volume. The term EC50 denotes the midpoint of the concentration-response curve.

≈ marks a conversion by molar mass, not a printed value. Bounds are passed on as bounds.

As to `O=C(O)c1cccc(N2CC(O)(c3ccc(OCc4c(-c5c(Cl)cccc5Cl)noc4C4CC4)cc3Cl)C2)c1`, the concentration in solution in the data set “Aqueous solubility assay” (solubility at 24 h) came to 195 µM (≈ 114 µg/mL). `O=C(O)c1ccc(C2CC(O)(c3ccc(OCc4c(-c5c(Cl)cccc5Cl)noc4C4CC4)cc3Cl)C2)cc1` (stereo not shown) had a solubility at 24 h in “Aqueous solubility assay” of 192 µM (≈ 112 µg/mL). In addition, the “PAMPA, Membrane permeability in % Flux” value in data set [1] was 21.1 % Flux. Regarding `Cn1nc(C(=O)O)c2ccc(C3CC(O)(c4ccc(OCc5c(-c6c(Cl)cccc6Cl)noc5C5CC5)cc4Cl)C3)cc21` (stereo not shown) [Example 10, 6-(3-(2-Chloro-4-((5-cyclopropyl-3-(2,6-dichlorophenyl)isoxazol-4-yl)methoxy)phenyl)-3-hydroxycyclobutyl)-1-methyl-1H-indazole-3-carboxylic Acid], the EC50 was 25 to 100 nM in data set [2] and less than 25 nM in data set [3]. On the same counts, the results for `CC(C)n1nc(C(=O)NCC(=O)O)cc1C1CC(O)(c2ccc(OCc3c(-c4c(Cl)cccc4Cl)noc3C3CC3)cc2Cl)C1` (stereo not shown) [Example 14/1] are greater than 100 nM and less than 25 nM. For the compound `O=C(O)c1cccc([C@H]2C[C@](O)(c3ccc(OCc4c(-c5c(Cl)cccc5Cl)noc4C4CC4)cc3Cl)C2)c1` [drawing 47], in “Aqueous solubility assay”, the solubility at 24 h was 192 µM (≈ 112 µg/mL). The “PAMPA, Membrane permeability in % Flux” value in data set [1] is 24.0 % Flux. Take `O=C(O)c1cccc(C2CC2c2ccc(OCc3c(-c4c(Cl)cccc4Cl)noc3C3CC3)cc2Cl)c1` (stereo not shown) [reference compound]: the solubility at 24 h in the data set “Aqueous solubility assay” was found to be 20 µM (≈ 11.1 µg/mL). Moreover, the “PAMPA, Membrane permeability in % Flux” value in data set [1] is given as 13.6 % Flux. On the same counts, the results for `O=C(O)c1ccc(C2CC2c2ccc(OCc3c(-c4c(Cl)cccc4Cl)noc3C3CC3)cc2Cl)cc1` (stereo not shown) [reference compound] are 72 µM (≈ 39.9 µg/mL) and 20.7 % Flux.
